Values of other authors in patent US5952306A, “Integrin receptor antagonists” (Merck & Co., Inc., priority 1997, dated 1999).

Experiments:
[1] = test system: cell attachment-promoting effects of fibronectin and vitronectin
[2] = test system: platelet aggregation and thrombus formation in mammalian blood

## arginine-glycine-aspartic acid [Arg-Gly-Asp]
[1]
  activity (duplicate or inhibit cell attachment-promoting effects): low activity

## Echistatin
Bone resorption
  block bone resorption: can effectively block bone resorption

## N-amidino-piperidine-3-carboxylglycyl-L-aspartyl-L-valine
[2]
  inhibit platelet aggregation and thrombus formation in mammalian blood: inhibit platelet aggregation and thrombus formation
